Results: US20230043428A1, “COMPOSITIONS AND METHODS FOR USE OF CANNABINOIDS FOR NEUROPROTECTION” (INMED PHARMACEUTICALS INC., priority 2019, published 2023)
Values joined by “and” are separate entries in the source; they are usually repeats but may differ in a detail not shown here. Identical values can stand only once. “Also recorded” adds a separate entry of the source.

Assays:
[1] = tested on: differentiated 661W cells; assay: MTT assay, CBNA on differentiated 661W cells at elevated hydrostatic pressure (~10-25 mmHg); format: cell-based, mouse; conditions: elevated hydrostatic pressure approximately 10 to 25 mmHg; 0.015 to 15 μM; 72 hours
Procedure: (§1) MTT Assay: For the MTT assay, differentiated 661W cells were treated with cannabinoids at various concentrations and processed to determine cytotoxicity. Briefly, 5 mg/mL of methylthiazolyldiphenyl-tetrazolium bromide (Sigma-Aldrich) stock solution was prepared in PBS. Following treatment of cannabinoids for 72 hours, 661W cells were incubated with 20 μL of MTT stock solution in 200 μL DMEM for 2 hours at 37° C. Following subsequent washes with PBS, 200 μL of isopropanol was added to each well, and the resulting change in color from dissolving formazan salt was immediately quantified using spectrophotometer (BMG Labtech) at a wavelength of 570 nm. The data was normalized to Vehicle Control (VC) containing 0.15% ethanol and presented as % Cell Death. The VC (%) at atmospheric pressure was considered as 0% cell death. The results are illustrated in FIG. 1.
In a separate study cannabinol-derivative CBNA at 0.015, 0.05, 0.15, 0.5, 1.5, 5, 10, and 15 μM concentrations was placed on differentiated 661W cells in a pressurized chamber where an elevated hydrostatic pressure of ˜10-25 mmHg was maintained for 72 hrs. At the end of incubation, 661W cells were processed for MTT assay to determine cytotoxicity. The results are illustrated in FIG. 6.

[2] = tested on: differentiated 661W cells; assay: MTT assay, differentiated 661W cells in pressurized chamber at elevated hydrostatic pressure (approximately 20 to 40 mm Hg); format: cell-based, mouse; conditions: for neuroprotection (Cell Death % vs Normal Pressure Vehicle Control): elevated hydrostatic pressure approximately 20 to 40 mm Hg, 72 hours
Procedure: (§2) Cell Culture and Differentiation: The mouse 661W (RGC-5) cell line was maintained in DMEM cell culture medium supplemented with 10% FBS and 1% Antibiotic-Antimycotic penicillin/streptomycin (growth medium) at 37° C. in a humidified atmosphere of 5% CO2. To induce neuronal differentiation in 661W cells, culture media was replaced by a growth medium containing 321 nM Staurosporine (STSR), and cells were incubated for 24 hrs at 37° C. in a humidified atmosphere of 5% CO2.
(§3) Compounds and Dosing Formulations: Selected cannabinoids: CBN, CBD, CBGA, CBDA, CBND and Δ^9-THC were procured from Cayman and Toronto Research Chemicals. Ethanol was used as the solvent to prepare 1 and 10 mM stock solutions. Treatment concentrations for CBN were prepared at 0.015, 0.05, 0.15, 0.5, 1.5, 5, 10 and 15 μM. Treatment concentrations at 0.5, 1.5 and 5 μM for other cannabinoids were prepared directly in the control medium (DMEM+5% FBS+1% Antibiotic-Antimycotic) by using appropriate stock solution.
(§4) Evaluation of Cytotoxicity and Neuroprotection: Evaluation of cannabinoid cytotoxicity on differentiated 661W cells under atmospheric pressure was carried out using MTT (3-(4,5-dimethylthiazol-2-yl)-2,5-diphenyltetrazolium bromide) assay. The cells were seeded onto 96-well plates (4,000 cells/well) in DMEM complete medium and allowed to reach ˜70% confluence for 24 hrs. After 24 hours, cell culture medium was replaced by growth medium containing 321 nM Staurosporine (STSR) and incubated for 1 day to induce differentiation into a neuronal phenotype.
as §1
Except where indicated all procedures were performed as described in Example 1. Differentiated 661W cells treated with cannabinoids at the respective concentrations were placed in a pressurized chamber where an elevated hydrostatic pressure of […] was maintained for 72 hrs. At the end of incubation, 661W cells were processed for MTT assay to determine cytotoxicity. The results are illustrated in FIGS. 2-5.

[3] = tested on: differentiated 661W cells; assay: MTT assay, cannabinoid cytotoxicity on differentiated 661W cells under atmospheric pressure; format: cell-based, mouse; conditions: 72 hours
Procedure: as §2, §3, §4, §1

[4] = tested on: rat episcleral vein laser photocoagulation model of glaucoma (RGC function); assay: pattern electroretinogram (pERG) in the rat episcleral vein laser photocoagulation model of glaucoma; format: in vivo; conditions: for pERG amplitudes vs baseline (statistical significance): two-way ANOVA, Tukey
Procedure: The pattern electroretinogram (pERG) amplitude a parameter that measures retinal ganglion cell (RGC) activity was evaluated on the eyes of anesthetized animals. During the pERG recording, the eyes were kept moist with a drop of 2.5% GonioVisc ophthalmic lubricant solution (Hub Pharmaceuticals), which also secured electrical contact between the corneas and ERG electrodes. The ERG electrodes were thin silver/silver-chloride wire rings. One eye was recorded while another eye was mechanically occluded. The occluded eye served as a reference in the ERG recording providing minimal physiological noise, while the ground electrode was placed on the tail. Only the signals from the right eye (OD) were recorded. The pERG stimulus was generated with a gamma-linearized monitor screen yielding vertical sinusoidal pattern of 0.10 cycles per degree of visual angle at viewing distance. The mean luminance of stimulation was 45 lux and contrast between dark and white was 99%. […] Two recordings were performed for each eye. For the pERG analysis, the pERG waveforms were superimposed, checked for consistency and averaged as final pERG response. Baseline pERG responses were recorded at day 0 four days prior to the lasering, and on days 7, 14 and day 21 post-lasering. Initially pERG baseline amplitudes were recorded on the eyes of all animals at baseline. The animals were then randomized into control and treatments groups based on their pERG response.
The following treatment arms were used in the study: • Group 1: Vehicle (0.5% DMSO-PBS) (IVT, day 0, day 7 and day 15) n=11 • Group 2: CBN low dose, 5 μM in 0.05% DMSO-PBS (IVT, day 0, day 7 and day 15) n=13 • Group 3: CBN high dose 50 μM in 0.5% DMSO-PBS (IVT, day 0, day 7 and day 15) n=11 • Group 4: Brimonidine (topical, twice daily at 5 μl per eye, day −3 to day 21) n=14

[5] = CBN high dose, 50 μM, IVT day 0, 7 and 15
[6] = CBN low dose, 5 μM, IVT day 0, 7 and 15
[7] = Brimonidine topical, twice daily at 5 μl per eye
[8] = Brimonidine topical, twice daily

## CCCCCc1cc2c(c(O)c1C(=O)O)-c1cc(C)ccc1C(C)(C)O2 [CBNA, cannabinolic acid]
[1]
  neuroprotection (Cell Death % vs Vehicle Control): statistically significant neuroprotection

## C=C(C)[C@@H]1CCC(C)=C[C@H]1c1c(O)cc(CCCCC)cc1O [CBD]
[2]; 0.5 μM, 1.5 μM and 5 μM
  neuroprotection (Cell Death % vs Normal Pressure Vehicle Control): absence of significant neuroprotection
[3]; concentration of about 0.5 μM
  toxicity when in contact with neurons: high toxicity
[3]; concentration of about 1.5 μM
  toxicity when in contact with neurons: high toxicity
[3]; concentration of about 5 μM
  toxicity when in contact with neurons: high toxicity

## CCCCCc1cc(O)c2c(c1)OC(C)(C)[C@@H]1CCC(C)=C[C@@H]21 [Δ^9-THC, Δ^9-tetrahydrocannabinol]
[2]; 0.5 μM, 1.5 μM and 5 μM
  neuroprotection (Cell Death % vs Normal Pressure Vehicle Control): absence of significant neuroprotection
[3]; concentration of about 5 μM
  toxicity when in contact with neurons: high toxicity

## CCCCCc1cc(O)c(C/C=C(\C)CCC=C(C)C)c(O)c1 [CBG, cannabigerol]
[3]; concentration of about 0.5 μM
  toxicity when in contact with neurons: high toxicity
[3]; concentration of about 1.5 μM
  toxicity when in contact with neurons: high toxicity
[3]; concentration of about 5 μM
  toxicity when in contact with neurons: high toxicity

## CCCCCc1cc(O)c2c(c1)OC(C)(C)c1ccc(C)cc1-2 [CBN, 6,6,9-trimethyl-3-pentylbenzo[c]chromen-1-ol]
[4]; CBN high dose, 50 μM IVT, days 14 and 21
  pERG amplitudes vs baseline (statistical significance): statistically significant difference in disease induction; also recorded: Statistically significant impairment of RGC function
[4]; CBN high dose, 50 μM, IVT day 0, 7 and 15, baseline (before lasering)
  pERG amplitude (mean ± SEM), BASELINE: 3.83 μV and 3.8 ± 0.4 μV
[4]; [5]
  pERG amplitude (mean ± SEM), DAY 7: 3.6 ± 0.6 μV
  pERG amplitude (mean ± SEM), DAY 14: 1.87 μV and 1.9 ± 0.3 μV
  pERG amplitude (mean ± SEM), DAY 21: 2.19 μV and 2.2 ± 0.4 μV
[4]; CBN high dose, 50 μM, IVT
  pERG amplitude reduction compared to baseline value, Day 7: −6.4%
[4]; CBN high dose, 50 μM, IVT, **p<0.01 vs baseline
  pERG amplitude reduction compared to baseline value, Day 14: −51.2** %
[4]; CBN high dose, 50 μM, IVT, *p<0.05 vs baseline
  pERG amplitude reduction compared to baseline value, Day 21: −42.9* %
[4]; CBN low dose of 5 μM final concentration inside the eye
  neuroprotective effect on RGCs: confers neuroprotective effect on RGCs similar to ALPHAGAN
[4]; CBN low dose, 5 μM final concentration inside the eye, follow-up days 14 and 21
  pERG amplitudes vs baseline (statistical significance): did not differ significantly from the baseline
[4]; CBN low dose, 5 μM, IVT day 0, 7 and 15, baseline (before lasering)
  pERG amplitude (mean ± SEM), BASELINE: 3.3 ± 0.3 μV
[4]; [6]
  pERG amplitude (mean ± SEM), DAY 7: 3.2 ± 0.5 μV
  pERG amplitude (mean ± SEM), DAY 14: 2.3 ± 0.2 μV
  pERG amplitude (mean ± SEM), DAY 21: 2.2 ± 0.3 μV
[4]; CBN low dose, 5 μM, IVT
  pERG amplitude reduction compared to baseline value, Day 7: −3.7%
  pERG amplitude reduction compared to baseline value, Day 14: −31.2%
  pERG amplitude reduction compared to baseline value, Day 21: −31.6%
[2]; CBN 0.015 to 15 μM, One-Way ANOVA vs VC
  neuroprotection (Cell Death % vs Normal Pressure Vehicle Control): statistically significant neuroprotection; also recorded: significant neuroprotective effect
[2]; elevated pressure conditions in the pressurized chamber, same conditions
  neuroprotective effect compared with CBD and Δ^9-THC: surprisingly superior

## Brc1c(NC2=NCCN2)ccc2nccnc12 [Alphagan, Brimonidine]
[4]; Brimonidine (ALPHAGAN) topical twice daily, follow-up days 14 and 21
  pERG amplitudes vs baseline (statistical significance): did not differ significantly from the baseline
[4]; Brimonidine topical, twice daily at 5 μl per eye, day −3 to day 21, baseline
  pERG amplitude (mean ± SEM), BASELINE: 3.6 ± 0.4 μV
[4]; [7]
  pERG amplitude (mean ± SEM), DAY 7: 3.9 ± 0.6 μV
  pERG amplitude (mean ± SEM), DAY 14: 2.8 ± 0.4 μV
  pERG amplitude (mean ± SEM), DAY 21: 2.4 ± 0.3 μV
[4]; [8]
  pERG amplitude reduction compared to baseline value, Day 7: 9.6%
  pERG amplitude reduction compared to baseline value, Day 14: −22.8%
  pERG amplitude reduction compared to baseline value, Day 21: −31.6%

## CCCCCc1cc(O)c2c(c1)OC(C)(CCC=C(C)C)C=C2 (stereo not drawn) [CBC, cannabichromene]
[3]; concentration of about 1.5 μM
  toxicity when in contact with neurons: high toxicity
[3]; concentration of about 5 μM
  toxicity when in contact with neurons: high toxicity

## CCCCCc1cc(O)c(C/C=C(\C)CCC=C(C)C)c(O)c1C(=O)O [CBGA]
[2]; 0.5 μM, 1.5 μM and 5 μM
  neuroprotection (Cell Death % vs Normal Pressure Vehicle Control): absence of significant neuroprotection
[3]; concentration of about 0.5 μM
  toxicity when in contact with neurons: high toxicity
[3]; concentration of about 1.5 μM
  toxicity when in contact with neurons: high toxicity
[3]; concentration of about 5 μM
  toxicity when in contact with neurons: high toxicity

## C=C(C)[C@@H]1CCC(C)=C[C@H]1c1c(O)cc(CCCCC)c(C(=O)O)c1O [CBDA, cannabidiolic acid]
[2]; 0.5 μM, 1.5 μM and 5 μM
  neuroprotection (Cell Death % vs Normal Pressure Vehicle Control): absence of significant neuroprotection
[3]; concentration of about 5 μM
  toxicity when in contact with neurons: high toxicity

## C=C(C)c1ccc(C)cc1-c1c(O)cc(CCCCC)cc1O [CBND]
[2]; 0.5 μM, 1.5 μM and 5 μM
  neuroprotection (Cell Death % vs Normal Pressure Vehicle Control): absence of significant neuroprotection
[3]; concentration of about 1.5 μM
  toxicity when in contact with neurons: high toxicity
[3]; concentration of about 5 μM
  toxicity when in contact with neurons: high toxicity
